Key:
[1] = in vitro hydroxyapatite (HAP) binding assay; details: for % Binding to Hydroxyapatite: 20 μM analyte, HAP 50 mg/mL, 50 mM Tris-HCl pH 7.5, 20% DMSO, 10 minutes; for binding to HAP (in words): in vitro, estradiol at 20 μM
Experimental: An in vitro HAP binding assay was conducted as follows. A 1 mM solution of each analyte was made in 100% dimethylsulfoxide (DMSO). A further dilution was then made to form a 20 μM solution of each analyte in 50 mM Tris-HCl Buffer at pH 7.5 with 20% DMSO. […] The HAP concentration used was 50 mg/mL.
For each analyte, samples were prepared in triplicate. The control samples (1 mL of 20 μM analyte) were transferred into a microcentrifuge tube. To a second set of samples (1 mL of 20 μM analyte) in a microcentrifuge tube was added 50 mg of HAP. The samples were vortexed, gently mixed with inversion for 10 minutes at room temperature, and then centrifuged at 4,400 rpm for 2 minutes to sediment the HAP contained in the samples. The supernatant was transferred to another set of microcentrifuge tubes.
An electronic spectral scan (ultraviolet-visible) from 220-520 nm was obtained for each analyte using a Bio-Rad Smart-Spec 3000. The blank was 50 mM Tris-HCl Buffer, pH 7.5, 20% DMSO. The wavelength of maximum absorbance (λmax) was determined, and the extinction coefficient (ε) was calculated using the Beer-Lambert Law.
The absorbance of the samples incubated with HAP was measured at λmax and the molar concentration of the analyte was then determined using the Beer-Lambert Law and the previously calculated ε. The concentration of the analytes 17β-estradiol, Oxy149, Oxy153, and Oxy155 without and with contact with HAP is shown in FIG. 10.
The fraction of analyte absorbed to HAP for each sample was subsequently calculated using the following formula for % binding, (Ho−H)/Ho*100=% binding with Ho being the mean concentration of control samples and H being the mean calculated concentration of samples treated with HAP.

C3H10T1/2 cells = experiment: alkaline phosphatase activity in C3H10T1/2 cells after 4 days of treatment; type: cell-based; details: 1 μM
Experimental: [drawing 19] (In Oxy133 the 6-hydroxyl group is more reactive toward succinic anhydride than the 3-hydroxyl.) The resulting conjugate, OXY149, retains most of the osteogenic activity of the parent Oxy133 in C3H10T1/2 cells determined by the level of induction of osteogenic differentiation marker, alkaline phosphatase activity after 4 days of treatment (Control: 2±1; Oxy133 (1 μM): 390±10; Oxy149 (1 μM): 100±12; Oxy149 (5 μM): 500±18; Oxy149 (10 μM); 480±12; Oxy149 (20 μM): 470±25). BTA-linker 1 can be attached via the 3- and/or 6-positions of OXY133 using tunable linker attachments.

[2] = system: M2-10B4 bone marrow stromal cells; experiment: osteogenic differentiation / ALP enzymatic activity in M2-10B4 bone marrow stromal cells; type: cell-based; details: M2-10B4 cells; for ALP Activity: ± SD; for EC50: read-out: EC50 based on activation of ALP
Experimental: Osteogenic differentiation was assessed by the induction of alkaline phosphatase (ALP) enzymatic activity, as well as induced expression of osteogenic differentiation marker genes ALP, bone sialoprotein (BSP), and osterix (OSX).

[3] = half-life in human liver microsomes; type: in vitro ADME; details: read-out: half-life in human liver microsomes (HLM)
From the text: Naturally-occurring oxysterols, 20(S)-hydroxycholesterol, 22(S)-hydroxycholesterol and 22(R)-hydroxycholesterol can be used as potential osteogenic agents (Kha; Richardson; Amantea). A series of potent osteogenic oxysterol analogues was identified, which are efficacious both in vitro and in vivo. Members of this family of semi-synthetic oxysterols induce robust bone formation and spine fusion in rats when applied locally between transverse processes via a collagen sponge (T. S. Johnson). The compound OXY133 is an analog in the series with enhanced osteogenic activity (FIG. 1) (Montgomery). Oxy133 can induce osteogenesis in cultured human primary mesenchymal stem cells and induce spine fusion in rats in an accelerated manner compared to other analogues. Oxy133 can induce robust osteogenesis in non-rodent models of bone disease such as rabbit spine fusion and rabbit calvarial defect models. Oxy133 is a drug development candidate for local administration with potential application in spine fusion and repair of non-union fractures. […] Furthermore, due to the possible mechanism of osteogenesis, a transient activation of the Hh-pathway in MSCs, increasing selectivity for bone tissue while minimizing the exposure to other tissues may be prudent. This can be accomplished by linking a bone targeting agent (BTA) to the oxysterol molecule that selectively delivers it to bone.

Hedgehog (Hh) signaling = experiment: Hedgehog signaling activation: expression of Hh target genes Ptch and HIP in M2-10B4 cells; type: cell-based
Experimental: The expression of Ptch gene in M2-10B4 cells in vitro 4 days after initial contact with each oxysterol at a concentration of 1 μM is shown in FIG. 8. The expression of HIP gene in M2-10B4 cells in vitro 4 days after initial contact with each oxysterol at a concentration of 1 μM is shown in FIG. 9.

[4] = oxysterol + cyclopamine (Cyc; 5 μM)

Structure (SMILES)	% Binding to Hydroxyapatite [1] [%]	binding to HAP (in words) [1]	alkaline phosphatase activity (C3H10T1/2 cells)	ALP Activity ([2]; oxysterol 1 μM) [units/mg protein]	ALP Activity [2, 4] [units/mg protein]	half-life [3] [min]	osteogenic differentiation (ALP activity, ALP, BSP, OSX gene expression) [2]	EC50 [2] [nM]	activation of Hedgehog (Hh) signaling by induced expression of Ptch and HIP (Hedgehog (Hh) signaling)
C[C@]12CC[C@@H]3c4ccc(O)cc4CC[C@H]3[C@@H]1CC[C@@H]2O [17β-estradiol, reference compound]	−1.95	no binding to HAP							
CCCCCC[C@](C)(O)[C@H]1CC[C@H]2[C@@H]3C[C@H](O)[C@H]4C[C@@H](O)CC[C@]4(C)[C@H]3CC[C@@]21C [Oxy133, reference compound]			390±10	714 ± 5	31 ± 7	< 5			
CCCCCCC(C)(O)C1CCC2C3CC(OC(=O)C(N)CC(=O)NCCOCCOCC(=O)Nc4ccc(OC)c(C(N)=O)c4O)C4CC(O)CCC4(C)C3CCC21C (stereo not shown) [Oxy154]		can bind hydroxyapatite (HAP)		390 ± 68	18 ± 2		induce osteogenic differentiation	630	activate Hedgehog (Hh) signaling
CCCCCCC(C)(O)C1CCC2C3CC(OC(=O)C(N)CC(=O)NCCOCCOCC(=O)Nc4ccc(OC)c(C(N)=O)c4O)C4CC(OC(=O)C(N)CC(=O)NCCOCCOCC(=O)Nc5ccc(OC)c(C(N)=O)c5O)CCC4(C)C3CCC21C (stereo not shown) [Oxy155]	76.68	can bind hydroxyapatite (HAP)		582 ± 8	39 ± 2		induce osteogenic differentiation	330	activate Hedgehog (Hh) signaling

Source: patent US9683009B2, “Bone-selective osteogenic oxysterol-bone targeting agents” (The Regents of the University of California, priority 2013, dated 2017)
